Source: US9777069B2, “Compositions and methods for detection of methadone metabolite” (Siemens Healthcare Diagnostics Inc., priority 2012, dated 2017)

System: anti-EDDP antibody
Assay: Assay for EDDP analyte: homogeneous enzyme immunoassay with G6PDH-product of Step 14-SH-Step 14 conjugate, absorbance at 340 nm
Assay type: binding
Conditions: 1 min after enzyme conjugate addition, Tris buffer pH 7.8
Protocol: The experiments were conducted on an AGILENT® 8453 UV spectrophotometer (Agilent Technologies, Santa Clara Calif.). Typically, 2.5 mL Tris buffer (50 mM, containing 3.3 mM MgCl2, pH 7.8), 0.2 ml anti-EDDP antibody (1 mg/mL, commercially available from Lin Zhi International Inc. Sunnyvale Calif.), 0.1 mL glucose-6-phosphate (0.1 M), 0.1 mL NADP (0.006M) were taken in a quartz cuvette. To this, 0-4029 ng/mL EDDP in 10 μL methanol was added and mixed well. Then, 10 μL G6PDH-product of Step 14-SH-Step 14 (1 mg/mL) was added and mixed well. Increase in the absorbance at 340 nm was monitored at 1 min after the enzyme addition.

Compound: CC=C1N(C)C(C)CC1(c1ccccc1)c1ccccc1 (stereo not drawn) [EDDP, 2-ethylidene-1,5-dimethyl-3,3-diphenylpyrrolidine]
- mAu 340 nm (increase in the absorbance at 340 nm) (EDDP 370 ng/mL): 456 mAu
- mAu 340 nm (increase in the absorbance at 340 nm) (EDDP 1221 ng/mL): 497 mAu
- mAu 340 nm (increase in the absorbance at 340 nm) (EDDP 4029 ng/mL): 561 mAu
